Patent US5185338A, “Medicament for treating cerebral insufficiency diseases, novel 2-(1-piperazinyl)-4-phenylcycloalkanopyrimidine derivatives, and process for the production thereof” (Dainippon Pharmaceutical Co., Ltd., priority 1989, dated 1993)

Legend:
Format in all cases: in vivo, mice (Std-ddY strain)
[1] = system: scopolamine-induced hypermotility; assay: Antagonistic effect on scopolamine-induced hypermotility; details: Mus musculus, po, orally, scopolamine hydrobromide 1 mg/kg i.p., complete antagonism to motility level of non-dosed animals=100%, read-out: Inhibitory ratio (% antagonism of scopolamine-induced hypermotility)
Procedure: Antagonistic effect on scopolamine-induced hypermotility:
A test compound was orally administered to each mouse, and 90 minutes after the administration, each one test animal was placed within a test cage (25×35×30 cm). After 30 minutes, scopolamine hydrobromide (1 mg/kg) was intraperitoneally administered to the mice and then the motility was measured with Animex activity meter for 30 minutes. The effect of test compounds was expressed as % antagonism (complete antagonism to the motility level of non-dosed animals=100%).

[2] = system: brain serotonin metabolite, 5-hydroxyindole-3-acetic acid (5-HIAA); assay: Increasing effect on concentration of brain serotonin metabolite (5-HIAA); details: Mus musculus, 2 h, two hours after treatment, 5-HIAA level of non-dosed animals=100%
Description: Increasing effect on concentration of brain serotonin metabolite:
A group of 5 male mice (Std-ddY strain, 25-30 g) was used for examining effect of the test compounds on concentration of a brain serotonin metabolite, 5-hydroxyindole-3-acetic acid (5-HIAA).
Mice were killed by decapitation two hours after the treatment with the test compounds. Brains were quickly taken out, homogenized in 1N formic acid-acetone solution, and centrifuged in a refrigerated ultracentrifuge. The supernatant was evaporated by blowing with N2 gas, and then, the residue was again dissolved in 0.01N acetic acid, and served for determining 5-HIAA concentration by high performance liquid chromatography with electrochemical detection. The effect of the test compounds on 5-HIAA concentration was shown as % of control (5-HIAA level of non-dosed animals=100%).

[3] = system: reserpine-induced hypothermia; assay: Anti-reserpine effect (reserpine-induced hypothermia); details: 100 mg/kg orally; reserpine 5 mg/kg s.c.; rectal temperature at 4 hours; complete inhibition=100%
Procedure: A group of 5 male mice (Std-ddY strain, 22-25 g) was used for examining the antagonistic effect of the test compounds on reserpine-induced hypothermia, which is known as a screening method for the antidepressant drug.
Reserpine (5 mg/kg) was subcutaneously administered to the mice and further a test compound was orally administered thereto. Four hours after the administration, rectal temperature of the mice was measured. The effect of the test compounds was estimated by % inhibition (complete inhibition to the hypothermia by reserpine in non-dosed animals=100%).

[4] = system: scopolamine-induced deficit of spontaneous alternation behavior; assay: Improving effect on scopolamine-induced deficit of spontaneous alternation behavior (T-maze); details: scopolamine hydrobromide 1 mg/kg, non-dosed mice=100%
Description: Improving effect on scopolamine-induced deficit of spontaneous alternation behavior:
A group of 15-25 male mice (Std-ddY strain, 22-28 g) was used for evaluating effect of the test compounds on scopolamine-induced deficit of spontaneous alternation in a T-maze, which is a known animal model of memory impairment due to hypofunction of the cholinergic nervous system. The T-maze used consists of a stem and two arms which are 25 cm long, 5 cm wide and 10 cm high. The first 10 cm of the stem and last 10 cm of each arm are divided by sliding doors into start and goal boxes.
A test compound and scopolamine hydrobromide (1 mg/kg) were intraperitoneally administered to each mouse, and after 30 minutes a test of spontaneous alternation task in the T-maze was continuously repeated for 8 trials. Commonly, naive mice alternate each (right and left) goal box in turn, but scopolamine-treated animals tend to enter the same goal box repeatedly. The effect of the test compounds was expressed as % improvement (complete improvement to the alternation level of non-dosed mice=100%).

[5] = system: cycloheximide-induced amnesia of passive avoidance response; assay: Improving effect on cycloheximide-induced amnesia of passive avoidance response; details: cycloheximide 60 mg/kg s.c., retention trial at 24 hours, non-dosed animals=100%
Description: Improving effect on cycloheximide-induced amnesia of passive avoidance response:
Anti-amnesic effect of the test compounds was examined using mice given cycloheximide which is a known amnesia-inducing agent.
A group of 15-20 male mice (Std-ddY strain, 27-33 g) was subjected to training and retention trials for a passive avoidance task in a step-down apparatus (30×30×50 cm) with a grid floor and a wooden platform (4×4×4 cm) in a center of the floor. In the training trial, each mouse was first placed on the platform, and when the mouse stepped down on the grid floor, an electric shock (1 Hz, 0.5 sec, 60 VDC) was delivered to the feet for 15 seconds. Immediately after the training trial, cycloheximide (60 mg/kg, s.c.) and a test compound (i.p.) were administered. The retention trial was carried out 24 hours thereafter, and the time from placing again each mouse on the platform until stepping down on the grid floor (step-down latency) was measured. The step-down latency in the retention trial was markedly shortened by treatment of cycloheximide (amnesia). The effect of test compounds was assessed by % improvement (complete improvement to the latency level of non-dosed animals=100%).

CN1CCN(c2nc3c(c(-c4cccc(F)c4)n2)CCC3)CC1 [Ex. 21]
inhibition in vivo at 30 mg/kg [1]: 70.5%

CN1CCN(c2nc3c(c(-c4ccc(Cl)cc4)n2)CCCC3)CC1 [Ex. 32]
inhibition in vivo at 30 mg/kg [1]: 62.6%

CCN1CCN(c2nc3c(c(-c4ccccc4)n2)CCCCCC3)CC1 [Ex. 17]
inhibition in vivo at 30 mg/kg [1]: 72.5%

CC1CCc2nc(N3CCNCC3)nc(-c3ccc(F)cc3)c2C1 (stereo not shown) [Ex. 40]
inhibition in vivo at 30 mg/kg [1]: 64.5%

CC1CCc2nc(N3CCN(C)CC3)nc(-c3ccc(F)cc3)c2C1 (stereo not shown) [Ex. 41]
inhibition in vivo at 30 mg/kg [1]: 60.8%

O=C(c1ccco1)N1CCN(c2nc3c(c(-c4ccc(F)cc4)n2)CCC3)CC1 [Ex. 45, 2-[4-(2-furoyl)-1-piperazinyl]-4-(4-fluorophenyl)-6,7-dihydro-5H-cyclopentapyrimidine]
inhibition in vivo at 30 mg/kg [1]: 60.4%

Fc1ccc(-c2nc(N3CCN(Cc4ccccc4)CC3)nc3c2CCC3)cc1 [Ex. 19]
inhibition in vivo at 3 mg/kg [1]: 64.4%

CN1CCN(c2nc3c(c(-c4ccc(F)cc4)n2)CCC3)CC1 [Ex. 4]
inhibition in vivo at 10 mg/kg [1]: 66% | response vs control in vivo at 100 mg/kg [2]: 122%

OCCN1CCN(c2nc3c(c(-c4ccccc4)n2)CCCC3)CC1 [Ex. 27]
inhibition in vivo at 30 mg/kg [1]: 42% | response vs control in vivo at 100 mg/kg [2]: 131% | Inhibitory ratio (% inhibition of reserpine-induced hypothermia) [3]: 46%

CCN1CCN(c2nc3c(c(-c4ccc(F)cc4)n2)CCC3)CC1 [Ex. 5]
inhibition in vivo at 30 mg/kg [1]: 81.4% | response vs control in vivo at 100 mg/kg [2]: 161%

CCN1CCN(c2nc3c(c(-c4ccccc4)n2)CCCC3)CC1 [Ex. 26]
inhibition in vivo at 30 mg/kg [1]: 59.6% | Inhibitory ratio (% inhibition of reserpine-induced hypothermia) [3]: 100%

CCN1CCN(c2nc3c(c(-c4ccc(Cl)cc4)n2)CCCC3)CC1 [Ex. 33]
inhibition in vivo at 30 mg/kg [1]: 42.3%

CCN1CCN(c2nc3c(c(-c4ccc(F)cc4)n2)CCCCC3)CC1 [Ex. 8]
inhibition in vivo at 10 mg/kg [1]: 80%

OCCN1CCN(c2nc3c(c(-c4ccc(F)cc4)n2)CCC3)CC1 [Ex. 6]
inhibition in vivo at 30 mg/kg [1]: 64.5% | response vs control in vivo at 100 mg/kg [2]: 119%

COc1ccc(-c2nc(N3CCN(C)CC3)nc3c2CCC3)cc1 [Ex. 23]
inhibition in vivo at 30 mg/kg [1]: 52.4%

Fc1ccc(-c2nc(N3CCN(Cc4ccccc4)CC3)nc3c2CCCCC3)cc1 [Ex. 38]
inhibition in vivo at 30 mg/kg [1]: 81.6%

CCN1CCN(c2nc3c(c(-c4ccc(OC)cc4)n2)CCC3)CC1 [Ex. 24]
inhibition in vivo at 30 mg/kg [1]: 72.5%

CCN1CCN(c2nc3c(c(-c4ccc(F)cc4)n2)CCCC3)CC1 [Ex. 29]
inhibition in vivo at 30 mg/kg [1]: 59.1% | response vs control in vivo at 100 mg/kg [2]: 149%

Fc1ccc(-c2nc(N3CCN(c4ccccc4)CC3)nc3c2CCC3)cc1 [Ex. 20]
inhibition in vivo at 30 mg/kg [1]: 35.2%

c1ccc(-c2nc(N3CCNCC3)nc3c2CCC3)cc1 [Ex. 3, 2-(1-Piperazinyl)-4-phenyl-6,7-dihydro-5H-cyclopentapyrimidine]
inhibition in vivo at 3 mg/kg [1]: 68% | Improvement of scopolamine-induced deficit of spontaneous alternation ([4]; 2.0 mg/kg i.p.): 45.8% | Improvement of cycloheximide-induced amnesia (step-down latency) ([5]; 0.5 mg/kg i.p.): 34.4% | Improvement of cycloheximide-induced amnesia (step-down latency) ([5]; 10.0 mg/kg i.p.): 52.1%

CN1CCN(c2nc3c(c(-c4ccccc4)n2)CCCC3)CC1 [Ex. 25]
inhibition in vivo at 10 mg/kg [1]: 67.2% | response vs control in vivo at 100 mg/kg [2]: 142% | Inhibitory ratio (% inhibition of reserpine-induced hypothermia) [3]: 63%

Fc1ccc(-c2nc(N3CCN(Cc4ccccc4)CC3)nc3c2CCCC3)cc1 [Ex. 31]
inhibition in vivo at 10 mg/kg [1]: 61.1%

c1ccc(CN2CCN(c3nc4c(c(-c5ccccc5)n3)CCCCC4)CC2)cc1 [Ex. 37]
inhibition in vivo at 30 mg/kg [1]: 62.9%

CC1CCc2nc(N3CCN(CCO)CC3)nc(-c3ccc(F)cc3)c2C1 (stereo not shown) [Ex. 43]
inhibition in vivo at 30 mg/kg [1]: 64.2%

c1ccc(CN2CCN(c3nc4c(c(-c5ccccc5)n3)CCC4)CC2)cc1 [Ex. 18]
inhibition in vivo at 30 mg/kg [1]: 54.4%

Fc1ccc(-c2nc(N3CCN(C4CCCC4)CC3)nc3c2CCC3)cc1 [Ex. 12]
inhibition in vivo at 30 mg/kg [1]: 80.9%

OCCN1CCN(c2nc3c(c(-c4ccc(Cl)cc4)n2)CCCC3)CC1 [Ex. 34]
inhibition in vivo at 30 mg/kg [1]: 50.2%

Fc1ccc(-c2nc(N3CCN(c4ccccn4)CC3)nc3c2CCC3)cc1 [Ex. 39]
inhibition in vivo at 30 mg/kg [1]: 55.6%

CCN1CCN(c2nc3c(c(-c4ccc(F)cc4)n2)CC(C)CC3)CC1 (stereo not shown) [Ex. 42]
inhibition in vivo at 30 mg/kg [1]: 71%

OCCN1CCN(c2nc3c(c(-c4ccc(F)cc4)n2)CCCC3)CC1 [Ex. 30]
inhibition in vivo at 30 mg/kg [1]: 75.7% | response vs control in vivo at 100 mg/kg [2]: 137% | Inhibitory ratio (% inhibition of reserpine-induced hypothermia) [3]: 67%

Fc1ccc(-c2nc(N3CCNCC3)nc3c2CCCC3)cc1 [Ex. 14, 2-(1-piperazinyl)-4-(4-fluoro-phenyl)-5,6,7,8-tetrahydroquinazoline]
inhibition in vivo at 3 mg/kg [1]: 55.2% | Improvement of scopolamine-induced deficit of spontaneous alternation ([4]; 1.0 mg/kg i.p.): 40.7% | Improvement of cycloheximide-induced amnesia (step-down latency) ([5]; 2.0 mg/kg i.p.): 52.5% | response vs control in vivo at 100 mg/kg [2]: 154% | Inhibitory ratio (% inhibition of reserpine-induced hypothermia) [3]: 100%

CCN1CCN(c2nc3c(c(-c4ccccc4)n2)CCCCC3)CC1 [Ex. 16]
inhibition in vivo at 30 mg/kg [1]: 54.2%

O=C(CCCN1CCN(c2nc3c(c(-c4ccc(F)cc4)n2)CCC3)CC1)c1ccc(F)cc1 [Ex. 46, 2-[4-[3-(4-fluorobenzoyl)propyl]-1-piperazinyl]-4-(4-fluorophenyl)-6,7-dihydro-5H-cyclopentapyrimidine]
inhibition in vivo at 30 mg/kg [1]: 100%

CCCN1CCN(c2nc3c(c(-c4ccc(F)cc4)n2)CCC3)CC1 [Ex. 13, 2-(4-n-propyl-1-piperazinyl)-4-(4-fluorophenyl)-6,7-dihydro-5H-cyclopentapyrimidine]
inhibition in vivo at 30 mg/kg [1]: 97.6%
